According to patent publication US9096492B2, “Hydrated N-fullerene amino acids, method for producing the latter, and pharmaceutical compositions on the basis thereof” (priority 2011, dated 2015):
Where two headings read alike, the source gives them in different places.

What was measured:
[1] = system: A/Vladivostok/2/09 (H1N1) influenza virus; assay type: in vivo, mice; conditions: for Size of chronic post-influenza pneumonia sites (% of the total surface area of the lungs): the lower of the virus doses used, day 15
[2] = system: A/Puerto Rico/8/34 (H1N1) influenza virus; assay type: in vivo, mice; conditions: for Size of chronic post-influenza pneumonia sites (% of the total surface area of the lungs): the lower of the virus doses used, day 15
[3] = Tamiflu 20 mg/kg, Summary dose, n=19
[4] = Tamiflu 20 mg/kg, Summary dose, n=28

Q: Which “activity against the strain” value ([1]; Tamiflu 20 mg/kg) does the source give for `CCOC(=O)C1=C[C@@H](OC(CC)CC)[C@H](NC(C)=O)[C@@H](N)C1.O=P(O)(O)O` [Tamiflu, ethyl(3R,4R,5S)-4-acetamido-5-amino-3-(1-ethylpropoxy)-1-cyclohexene-1-carboxylate phosphate, reference compound] here?
A: inactive

Q: What about the “Average lifetime (LD)” value [1, 3] of the same compound?
A: 12.5 days

Q: And the “Increase in LD” value [1, 3]?
A: 0.2 days

Q: And the “Index of protection, %” value [1, 3]?
A: 14.0%

Q: And the “Mortality rate, %” value [1, 3]?
A: 36.8%

Q: And the Number of survivors [1, 3]?
A: 12

Q: And the “Average lifetime (LD)” value ([1]; Tamiflu 20 mg/kg, […], n=9)?
A: 13.4 days

Q: And the “Increase in LD” value ([1]; Tamiflu 20 mg/kg, […], n=9)?
A: 0.3 days

Q: And the “Index of protection, %” value ([1]; Tamiflu 20 mg/kg, […], n=9)?
A: 18.5%

Q: And the “Mortality rate, %” value ([1]; Tamiflu 20 mg/kg, […], n=9)?
A: 22.2%

Q: What about the Number of survivors ([1]; Tamiflu 20 mg/kg, […], n=9) of the same compound?
A: 7

Q: What about the “Average lifetime (LD)” value ([1]; Tamiflu 20 mg/kg, […], n=10) of the same compound?
A: 11.7 days

Q: And the “Increase in LD” value ([1]; Tamiflu 20 mg/kg, […], n=10)?
A: 0.3 days

Q: And the “Index of protection, %” value ([1]; Tamiflu 20 mg/kg, […], n=10)?
A: 16.7%

Q: And the “Mortality rate, %” value ([1]; Tamiflu 20 mg/kg, […], n=10)?
A: 50.0%

Q: And the Number of survivors ([1]; Tamiflu 20 mg/kg, […], n=10)?
A: 5

Q: And the “Size of chronic post-influenza pneumonia sites (% of the total surface area of the lungs)” value ([1]; Tamiflu 20 mg/kg)?
A: 15 ± 5%

Q: What about the “reduction of the death rate compared to the control” value ([2]; Tamiflu) of the same compound?
A: approximately 70%

Q: What about the “Average lifetime (LD)” value [2, 4] of the same compound?
A: 13.9 days

Q: What about the “Increase in LD” value [2, 4] of the same compound?
A: 3.6 days

Q: And the “Index of protection, %” value [2, 4]?
A: 66.7%

Q: And the “Mortality rate, %” value [2, 4]?
A: 21.4%

Q: And the Number of survivors [2, 4]?
A: 22

Q: What about the “Average lifetime (LD)” value ([2]; Tamiflu 20 mg/kg, […], n=13) of the same compound?
A: 14.4 days

Q: And the “Increase in LD” value ([2]; Tamiflu 20 mg/kg, […], n=13)?
A: 2.1 days

Q: And the “Index of protection, %” value ([2]; Tamiflu 20 mg/kg, […], n=13)?
A: 67.0%

Q: What about the “Mortality rate, %” value ([2]; Tamiflu 20 mg/kg, […], n=13) of the same compound?
A: 15.4%

Q: And the Number of survivors ([2]; Tamiflu 20 mg/kg, […], n=13)?
A: 11

Q: And the “Average lifetime (LD)” value ([2]; Tamiflu 20 mg/kg, […], n=15)?
A: 13.5 days

Q: What about the “Increase in LD” value ([2]; Tamiflu 20 mg/kg, […], n=15) of the same compound?
A: 5.5 days

Q: And the “Index of protection, %” value ([2]; Tamiflu 20 mg/kg, […], n=15)?
A: 68.5%

Q: And the “Mortality rate, %” value ([2]; Tamiflu 20 mg/kg, […], n=15)?
A: 26.7%

Q: And the Number of survivors ([2]; Tamiflu 20 mg/kg, […], n=15)?
A: 11

Q: And the “Size of chronic post-influenza pneumonia sites (% of the total surface area of the lungs)” value ([2]; Tamiflu 20 mg/kg)?
A: 15 ± 4; %

Q: For “N-fullerene tris(δ-aminocaproic acid) hydrate [Agent 1]”, which “Average lifetime (LD)” value ([1]; 30 mg/kg, Summary dose, n=25) is on record?
A: 13.7 days

Q: What about the “Increase in LD” value ([1]; 30 mg/kg, Summary dose, n=25) of the same compound?
A: 1.4 days

Q: What about the “Mortality rate, %” value ([1]; 30 mg/kg, Summary dose, n=25) of the same compound?
A: 28.0%

Q: And the Number of survivors ([1]; 30 mg/kg, Summary dose, n=25)?
A: 18

Q: And the “Average lifetime (LD)” value ([1]; 30 mg/kg, […], n=12)?
A: 13.2 days

Q: And the “Increase in LD” value ([1]; 30 mg/kg, […], n=12)?
A: 1.8 days

Q: And the “Mortality rate, %” value ([1]; 30 mg/kg, […], n=12)?
A: 41.7%

Q: And the Number of survivors ([1]; 30 mg/kg, […], n=12)?
A: 7

Q: And the “Average lifetime (LD)” value ([1]; 30 mg/kg, […], n=13)?
A: 14.2 days

Q: And the “Increase in LD” value ([1]; 30 mg/kg, […], n=13)?
A: 1.0 days

Q: What about the “Mortality rate, %” value ([1]; 30 mg/kg, […], n=13) of the same compound?
A: 15.4%

Q: And the Number of survivors ([1]; 30 mg/kg, […], n=13)?
A: 11

Q: And the “Average lifetime (LD)” value ([1]; 100 mg/kg, Summary dose, n=22)?
A: 13.6 days

Q: And the “Increase in LD” value ([1]; 100 mg/kg, Summary dose, n=22)?
A: 1.3 days

Q: And the “Mortality rate, %” value ([1]; 100 mg/kg, Summary dose, n=22)?
A: 27.3%

Q: And the Number of survivors ([1]; 100 mg/kg, Summary dose, n=22)?
A: 16

Q: And the “Average lifetime (LD)” value ([1]; 100 mg/kg, […], n=10)?
A: 14.0 days

Q: And the “Increase in LD” value ([1]; 100 mg/kg, […], n=10)?
A: 0.8 days

Q: And the “Mortality rate, %” value ([1]; 100 mg/kg, […], n=10)?
A: 20.0%

Q: And the Number of survivors ([1]; 100 mg/kg, […], n=10)?
A: 8

Q: What about the “Average lifetime (LD)” value ([1]; 100 mg/kg, […], n=12) of the same compound?
A: 13.3 days

Q: And the “Increase in LD” value ([1]; 100 mg/kg, […], n=12)?
A: 1.9 days

Q: And the “Mortality rate, %” value ([1]; 100 mg/kg, […], n=12)?
A: 33.3%

Q: What about the Number of survivors ([1]; 100 mg/kg, […], n=12) of the same compound?
A: 8

Q: What about the “Average lifetime (LD)” value ([1]; 300 mg/kg, Summary dose, n=26) of the same compound?
A: 14.2 days

Q: And the “Increase in LD” value ([1]; 300 mg/kg, Summary dose, n=26)?
A: 1.8 days

Q: And the “Mortality rate, %” value ([1]; 300 mg/kg, Summary dose, n=26)?
A: 15.4%

Q: What about the Number of survivors ([1]; 300 mg/kg, Summary dose, n=26) of the same compound?
A: 22

Q: And the “Size of chronic post-influenza pneumonia sites (% of the total surface area of the lungs)” value ([1]; 300 mg/kg)?
A: 7 ± 2%

Q: What about the “Average lifetime (LD)” value ([2]; 30 mg/kg, Summary dose, n=29) of the same compound?
A: 11.8 days

Q: What about the “Increase in LD” value ([2]; 30 mg/kg, Summary dose, n=29) of the same compound?
A: 1.4 days

Q: And the “Mortality rate, %” value ([2]; 30 mg/kg, Summary dose, n=29)?
A: 55.2%

Q: What about the Number of survivors ([2]; 30 mg/kg, Summary dose, n=29) of the same compound?
A: 13

Q: And the “Average lifetime (LD)” value ([2]; 30 mg/kg, […], n=14)?
A: 13.3 days

Q: And the “Increase in LD” value ([2]; 30 mg/kg, […], n=14)?
A: 1.0 days

Q: What about the “Mortality rate, %” value ([2]; 30 mg/kg, […], n=14) of the same compound?
A: 35.7%

Q: What about the Number of survivors ([2]; 30 mg/kg, […], n=14) of the same compound?
A: 9

Q: And the “Average lifetime (LD)” value ([2]; 30 mg/kg, […], n=15)?
A: 10.4 days

Q: And the “Increase in LD” value ([2]; 30 mg/kg, […], n=15)?
A: 2.3 days

Q: And the “Mortality rate, %” value ([2]; 30 mg/kg, […], n=15)?
A: 73.3%

Q: And the Number of survivors ([2]; 30 mg/kg, […], n=15)?
A: 4

Q: What about the “Average lifetime (LD)” value ([2]; 100 mg/kg, Summary dose, n=30) of the same compound?
A: 12.6 days

Q: And the “Increase in LD” value ([2]; 100 mg/kg, Summary dose, n=30)?
A: 2.2 days

Q: What about the “Mortality rate, %” value ([2]; 100 mg/kg, Summary dose, n=30) of the same compound?
A: 40.0%

Q: What about the Number of survivors ([2]; 100 mg/kg, Summary dose, n=30) of the same compound?
A: 18

Q: What about the “Average lifetime (LD)” value ([2]; 300 mg/kg, Summary dose, n=29) of the same compound?
A: 12.5 days

Q: What about the “Increase in LD” value ([2]; 300 mg/kg, Summary dose, n=29) of the same compound?
A: 2.2 days

Q: What about the “Mortality rate, %” value ([2]; 300 mg/kg, Summary dose, n=29) of the same compound?
A: 31.0%

Q: And the Number of survivors ([2]; 300 mg/kg, Summary dose, n=29)?
A: 20

Q: And the “Average lifetime (LD)” value ([2]; 300 mg/kg, […], n=14)?
A: 11.3 days

Q: What about the “Increase in LD” value ([2]; 300 mg/kg, […], n=14) of the same compound?
A: 3.2 days

Q: What about the “Mortality rate, %” value ([2]; 300 mg/kg, […], n=14) of the same compound?
A: 42.9%

Q: And the Number of survivors ([2]; 300 mg/kg, […], n=14)?
A: 8

Q: And the “Average lifetime (LD)” value ([2]; 300 mg/kg, […], n=15)?
A: 13.7 days

Q: What about the “Increase in LD” value ([2]; 300 mg/kg, […], n=15) of the same compound?
A: 1.3 days

Q: What about the “Mortality rate, %” value ([2]; 300 mg/kg, […], n=15) of the same compound?
A: 20.0%

Q: What about the Number of survivors ([2]; 300 mg/kg, […], n=15) of the same compound?
A: 12

Q: And the “Size of chronic post-influenza pneumonia sites (% of the total surface area of the lungs)” value ([2]; 300 mg/kg)?
A: 13 ± 3%
